Data taken from publication PMC12471852, “Design and Synthesis of Marine-Inspired Itampolin A Derivatives to Overcome Chemoresistance in NSCLC via Cholesterol Homeostasis Modulation” (Marine Drugs, 2025).

Tested on: PC9/GR cells
Test: Intracellular total cholesterol quantification, PC9/GR cells
Type: cell-based, human
Description: Following sample collection, intracellular total cholesterol levels were quantified using a commercial Total Cholesterol (T-CHO) assay kit (Nanjing Jiancheng Bioengineering Institute, Nanjing, China) according to the manufacturer’s protocol. Cells were treated as indicated 24 h prior to analysis. Total cellular protein was extracted, and protein concentration was determined using a bicinchoninic acid (BCA) assay. Protein aliquots were loaded in duplicate into a 96-well microplate. Reagents were added sequentially as specified in the kit instructions. After incubation at 37 °C for 10 min, absorbance was measured at 510 nm using a microplate reader. Total cholesterol content was normalized to cellular protein concentration and expressed as μg cholesterol per mg protein.

O=C(NCCc1cc(Br)c(O)c(Br)c1)Nc1ccc(F)cc1 [4l, 1-(3,5-dibromo-4-hydroxyphenethyl)-3-(4-fluorophenyl)urea]
intracellular cholesterol levels (PC9/GR, 24 h treatment): reduced intracellular cholesterol levels
effect of TM7SF2 overexpression on the 4l-induced change in intracellular cholesterol (TM7SF2-overexpressing PC9/GR cells): abrogated the reduction in intracellular cholesterol levels
